Target: T1, cMoL (coagulant lectin from Moringa oleifera seeds) (Moringa oleifera, UniProt Z9EIH6G9R5)
T1 construct: native, purified from seeds (ammonium sulfate, guar gel column); 101 residues; homodimer
T1 sequence (Z9EIH6G9R5 1-101): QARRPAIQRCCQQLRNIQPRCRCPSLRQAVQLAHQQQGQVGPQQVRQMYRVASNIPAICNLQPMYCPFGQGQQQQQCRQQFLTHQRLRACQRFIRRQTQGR
Assay: intrinsic fluorescence quenching, modified Stern-Volmer
Assay type: binding
Details: 298 K; water; excitation 280 nm; Hill h ~2 (dimer)
Description: intrinsic fluorescence quenching, modified Stern-Volmer on cMoL (coagulant lectin from Moringa oleifera seeds)

OC[C@H]1OC(O)[C@H](O)[C@@H](O)[C@H]1O (some centres unmarked) [galactose]
Ka (10^2 M^-1): 0.1239 ± 0.00004 10^2 M^-1

OC[C@H]1OC(O)[C@H](O)[C@@H](O)[C@@H]1O (some centres unmarked) [glucose]
Ka (10^2 M^-1): 0.2979 ± 0.00007 10^2 M^-1

— PMC11477877, “Carbohydrate-Binding Mechanism of the Coagulant Lectin from Moringa oleifera Seeds (cMoL) Is Related to the Dimeric Protein Structure” (Molecules, 2024)
